# Legend:
# Type in all cases: cell-based, human
# TESTSKIN II = assay: MTT reduction toxicity assay on TESTSKIN II skin tissue; conditions: MTT % survival, 24-hour exposure; PMA 10 ng/mL
# Experimental: The release of PGE2 and GM-CSF from skin tissue provides a measure of protective potential following pre-incubation with test materials, whereas the reduction of MTT (3-[4,5-dimethylthiazol-2yl]-2,5-diphenyl-2H-tetrazolium bromide) provides an estimate of toxicity potential.
# (§1) The skin tissue used in this study, TESTSKIN II (Organogenesis Inc., Canton, Mass.), is constructed from human skin with anatomical structures and physiological functions that simulate actual living skin. This tissue has an upper epidermal layer with well-differentiated keratinocytes and stratum corneum and a lower dermal layer with living fibroblasts able to produce collagen matrix.
# (§2) The test materials were evaluated for exposure periods of 4, 8, and 24 hours, and their toxicity was evaluated for an exposure period of 24 hours. Test materials 2, 4, 6, and 8 were used neat. […] All dilutions were made in growth media, and assays were performed in triplicate.
# All supplies and handling equipment are sterilized, and techniques for maintaining sterility are used. […]
# Tissues free of test materials are incubated with 2 mg/mL of MTT solution (made up in growth media) in a humidified 37° C. incubator supplied with 10% CO2 for 2 hours. […] Spent MTT solution is read in a 96 well flat bottom plate at A540. […]
# PGE2 = PGE2 secretion from TESTSKIN II tissue (competitive ELISA); conditions: after 24 hours of exposure
# Experimental: The anti-inflammatory potential of a composition according to the present invention that includes a combination of linseed extract and licorice extract was evaluated as described herein. The release of PGE2 and GM-CSF from skin tissue provides a measure of protective potential following pre-incubation with test materials, whereas the reduction of MTT (3-[4,5-dimethylthiazol-2yl]-2,5-diphenyl-2H-tetrazolium bromide) provides an estimate of toxicity potential.
# The skin tissue used in this study, TESTSKIN II (Organogenesis Inc., Canton, Mass.), is constructed from human skin with anatomical structures and physiological functions that simulate actual living skin. […]
# The test materials were evaluated for exposure periods of 4, 8, and 24 hours, and their toxicity was evaluated for an exposure period of 24 hours. […]
# Four controls are included: total activity, non-specific binding, maximum binding, and substrate blank. […] Following incubation, 50 μL of stop solution (trisodium phosphate solution) is added and the optical density is measured immediately at 405 nm (reference wavelength of 570-590 nm) using a microplate spectrophotometer. The amount of PGE2 present in the supernatant is determined by comparison to the calibration curve generated by the recombinant PGE2 standard. […]
# IL-1α = IL-1α secretion from TESTSKIN II tissue (ELISA); conditions: test materials neat, dexamethasone 100 μM
# Experimental: as §1, §2
# All supplies and handling equipment are sterilized, and techniques for maintaining sterility are used. Skin tissue is punched out using an 8 mm biopsy punch from the middle section and transferred to a well of a six-well plate containing transwell inserts and 1 mL of growth media. Tissues are transferred to a humidified 37° C. incubator supplied with 10% CO2 and incubated overnight.
# Test materials to be used are dosed on a sterile dosing pad (10 μL/pad) and placed on top of tissue. Dosed tissues are returned to the incubator and incubated for a specified amount of time (e.g., 4 hours), after which the supernatants are replaced with fresh media. Collected supernatants are used for PGE2 and GM-CSF assays.
# Assays are performed in triplicate, and the numbers shown correspond to averages of the triplicate treatments.
# Tissues are pre-incubated with test materials for 4 hours prior to being stimulated by PMA or Histamine. Secreted IL-1α, PGE2 and GM-CSF are measured using the ELISA method.
Compound,"toxicity to TESTSKIN II tissue, in words (TESTSKIN II)","induction of PGE2 secretion by stimulus, in words (PGE2)","IL-1α secretion (IL-1α; 0 Hr, average of triplicate ± SD)",IL-1α secretion (IL-1α; 8 Hr),IL-1α secretion (IL-1α; 24 Hr)
"CCCCCCCCCCCCCC(=O)O[C@@H]1[C@@H](C)[C@@]2(O)[C@@H](C=C(CO)C[C@]3(O)C(=O)C(C)=C[C@@H]23)[C@@H]2C(C)(C)[C@]12OC(C)=O [PMA, phorbol myristate acetate]",mildly toxic,fails to induce PGE2 secretion above the background level,,,
"C[C@@H]1C[C@H]2[C@@H]3CCC4=CC(=O)C=C[C@]4(C)[C@@]3(F)[C@@H](O)C[C@]2(C)[C@@]1(O)C(=O)CO [Dexamethasone, dexamethasone]",,,22.00 ± 9.69,24.45 ± 9.47,25.42 ± 8.94
